The results in this text go back to ChEMBL document CHEMBL1135594 (J Med Chem, 2002).

For experiment [1], the target named is T1, Histidine-rich protein PFHRP-II (Plasmodium falciparum, UniProt P05227).
T1 sequence (P05227 whole entry): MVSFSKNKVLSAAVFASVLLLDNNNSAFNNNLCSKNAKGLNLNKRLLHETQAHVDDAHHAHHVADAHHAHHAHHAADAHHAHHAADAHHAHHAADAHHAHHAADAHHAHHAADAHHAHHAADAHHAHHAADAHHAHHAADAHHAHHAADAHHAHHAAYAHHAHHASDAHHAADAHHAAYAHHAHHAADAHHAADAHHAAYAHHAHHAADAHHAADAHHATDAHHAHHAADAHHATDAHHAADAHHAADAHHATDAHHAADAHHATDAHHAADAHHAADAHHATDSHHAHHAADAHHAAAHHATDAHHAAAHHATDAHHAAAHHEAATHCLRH
Nature of the experiment: Inhibition of beta-hematin formation. The experiment is classed as functional.

Experiment [2] has as its system Plasmodium falciparum. Nature of the experiment: microbe, parasite or virus in culture.
The test system of experiment [3] is Plasmodium falciparum. Nature of the experiment: Displacement of chloroquine from Fe(3+) FPIX-loaded membrane. The experiment is classed as functional.
Experiment [4] deals with Plasmodium falciparum. Nature of the experiment: microbe, parasite or virus in culture. The source holds these as a separate data set.
The subject of experiment [5] is Plasmodium falciparum. Nature of the experiment: microbe, parasite or virus in culture. This is another data set of the same source.
Experiment [6] in a line: Resistance factor as the ratio of IC50 against Plasmodium falciparum K1 to that of Plasmodium falciparum HB3. In kind it is functional.
The subject of experiment [7] is Plasmodium falciparum. Nature of the experiment: Inhibition of chloroquine uptake from intact parasites; Not active. In kind it is functional, organism-based.
The subject of experiment [8] is Plasmodium falciparum. Nature of the experiment: microbe, parasite or virus in culture. This is another data set of the same source.

Calls of active or inactive are those of the source. The rule behind the calls is not given here.

For orientation: IC50 means the concentration needed to halve the response being measured. A higher IC50 goes with weaker potency. On to `CC(C)(C)NCCNc1ccnc2cc(C(F)(F)F)ccc12`, for which the IC50 in experiment [1] came out at 71 µM; with Plasmodium falciparum [2], 2.09 µM; in the experiment on Plasmodium falciparum [3] it was 4.96 µM; in the experiment with Plasmodium falciparum [4], 0.0098 µM; in the experiment on Plasmodium falciparum [5], 0.0055 µM. Further, the Resistance factor in experiment [6] is 1.78.

In the case of `CCN(CC)CCCC(C)Nc1ccnc2cc(Cl)ccc12` (stereo not drawn), the Resistance factor in experiment [6] stood at 10.

In the case of `Clc1ccc2c(NCCN3CCOCC3)ccnc2c1`, the IC50 in experiment [1] worked out at 102 µM; in the experiment on Plasmodium falciparum [4], 0.24 µM; in the experiment on Plasmodium falciparum [8] it was 24.9 µM; with Plasmodium falciparum [5], 0.15 µM. The NA entry in the experiment on Plasmodium falciparum [7] is “inactive”.

`CC(C)(C)NCCNc1ccnc2cc(Cl)ccc12`: the IC50 is 70 µM in experiment [1]; 0.71 µM in the experiment with Plasmodium falciparum [2]; 0.0153 µM in the experiment on Plasmodium falciparum [4]; 3.94 µM in the experiment on Plasmodium falciparum [8]; 0.0043 µM with Plasmodium falciparum [5].

In the case of `Clc1ccc2c(NCCN3CCCCC3)ccnc2c1`, the IC50 in experiment [1] stood at 86 µM; in the experiment on Plasmodium falciparum [2], 0.91 µM; in the experiment on Plasmodium falciparum [4] it was 0.013 µM; with Plasmodium falciparum [8], 7.65 µM; in the experiment with Plasmodium falciparum [5] it was 0.0068 µM.

With `Clc1ccc2c(NCCN3CCCC3)ccnc2c1`, the IC50 is 78 µM in experiment [1]; 1.62 µM in the experiment on Plasmodium falciparum [2]; 0.0132 µM in the experiment on Plasmodium falciparum [4]; 5.94 µM in the experiment on Plasmodium falciparum [8]; 0.0068 µM with Plasmodium falciparum [5].

Regarding `FC(F)(F)c1ccc2c(NCCN3CCCCC3)ccnc2c1`, the IC50 in experiment [1] is 65 µM; with Plasmodium falciparum [2] it was 2.03 µM; in the experiment on Plasmodium falciparum [4] it was 0.0222 µM; with Plasmodium falciparum [8], 8.39 µM; in the experiment with Plasmodium falciparum [5], 0.0106 µM. The Resistance factor in experiment [6] was found to be 2.09.
